Data as given in patent US20250074946A1, “USE OF SE-DR AFFINITY PEPTIDE IN PREPARING DRUG FOR TREATING RHEUMATIC DISEASE” (HEBEI FITNESS BIOTECHNOLOGY CO., LTD., priority 2021, published 2025).
Where no end group is shown, it is not given here.

What was measured:
[1] = tested on: CIA rats; assay: APL20 in combination with methotrexate in CIA rats (Example 11); assay type: in vivo, rat
[2] = tested on: rats; conditions: cited from earlier work
[3] = tested on: CIA rats; assay: APL20 in combination with methotrexate in CIA rats (Example 11); assay type: in vivo, rat; conditions: for inflammation score during drug discontinuation compared with that at the time of drug discontinuation: 21 days of observation after stopping at day 21; for Pathological score during 21 days of drug discontinuation: HE staining of ankle joint, score 0-4; for AUC, during drug discontinuation (day 22-42): inflammation score AUC after stopping administration at day 21
Source text: Female Lewis rats were used to establish CIA model. Methods: the rats were immunized by intradermal injecting the emulsion prepared by bovine C II and IFA at the tail head. After 7 days, the rats were boosted once with the same method. Thereafter, the morphological changes of the four paws of the rats were examined every day, and the rats were randomly assigned to the treatment group at the inflammation score of 1. […] Another 8 female Lewis rats were not subjected to model establishment and set as the control group. PBS was administrated to both the model group and the control group. Corresponding drugs were administrated to the rats in each group by tail vein injection at the volume of 5 mL/kg, in which methotrexate was administrated twice a week, and other drugs were administrated once every other day, for 21 consecutive days, followed by a recovery period of 21 days. The inflammation scores of the four paws of the rats in each group were evaluated during the administration (once every other day), and the area under the curve (AUC) of the inflammation score was calculated during the administration. During drug discontinuation, the inflammation scores of the four paws of the rats in each group were continuously evaluated (once every other day), and the rats were sacrificed on day 22 after drug discontinuation. HE staining was performed on the ankle joint for tissue injury evaluation. The specific scoring criteria were as follows: 0=normal synovial tissue; 1=synovial hyperplasia and inflammatory cell infiltration; 2-pannus formation and cartilage erosion; 3=destruction of most of the cartilage with subchondral bone erosion; 4=loss of joint integrity, ankylosis.

[4] = tested on: HLA-DR1; assay: Determination of polypeptide affinity (fluorescence polarization competition); assay type: binding, human; conditions: competition with 25 nM fluorescently-labeled polypeptide, 500 nM HLA-DR1, pH 7.4, 37° C. 30 min, fluorescence polarization, curve fitting
Protocol: (§1) The reaction system was at pH 7.4. Before use, protease inhibitor cocktail was added, and incubated at 37° C. for 30 min. The fluorescence polarization values were read. The mean value of the free labeled polypeptides was set as FP_free, and the value of the well without the competitive peptide was set as FP_no_comp. The relative binding rate of other wells was calculated according to the formula=(FP_sample−FP_free)/(FP_no_comp−FP_free). A curve was plotted using the relative binding rate and the concentration of the test polypeptide, and the IC50 value was calculated by curve fitting.

[5] = molecular target: HLA-DR1 (Homo sapiens, UniProt P01903+P01911, A100R/D57E/F55L/F60I/F76Y/I96L/L162R/M171V/P40L/Q125E/R42F/V115G/Y59C); assay: as above; assay type: binding
Protocol: as §1

[6] = tested on: PBMC; assay: PBMC stimulation test, IL-6 in supernatant by ELISA; assay type: cell-based, human; conditions: PBMC 1×10^6 cell/ml, peptide 10 μg/ml, 5 days of culture
Source text: The SE-DR molecule is directly related to the pathogenesis of RA. It can present RA-related autoantigens in vivo, such as type II collagen (CII), heat shock protein 60 (Hsp60), cartilage glycoprotein (HCgp-39) and so on, and further activate autoreactive T cells, leading to the occurrence of rheumatoid arthritis. An important strategy for the treatment of RA is to use competitive inhibition to block the activation of autoreactive T cells by autoantigen peptides. […] Based on the above principles, we have designed and synthesized a series of altered peptide ligands, and screened for their affinity to SE-DR and for the activation ability on the peripheral blood T cells in RA patients. The specific steps and results are shown in Example 1 and Example 2.
3 mL ficoll was added to a 15 mL centrifuge tube, and 4 mL blood sample was then applied on the surface of ficoll. The tube was centrifuged at 400 g at 18-20° C. for 30-40 min. The upper layer of plasma was aspirated with a Pasteur pipette, and the PBMC layer (approximately 2 mL) was aspirated, and added to a 14 mL centrifuge tube previously filled with at least 3 volumes (6 mL) of PBS. The mixture was gently resuspended. The tube was centrifuged at 60-100 g for 10 min at 18-20° C. After centrifugation, the supernatant was removed with a Pasteur pipette, and the resulting cell mass was resuspended in 6-8 mL PBS and centrifuged at 18-20° C. for 10 min at 60-100 g to remove the supernatant. The cells were resuspended in an appropriate amount of 1640 complete medium and diluted to 1×10^6 cell/ml after cell counting. The diluted cell suspension was added to a 96-well plate. The positive control, allosteric peptide, was added to 100 μl cell culture to a final concentration of 10 μg/ml. The mixture was replenished to 200 μL with 1640 complete medium. After 5 days of culture, the supernatant was aspirated, centrifuged at 3000 rpm for 5 minutes, and the level of IL-6 in the supernatant was detected by ELISA.

[7] = tested on: immune system of healthy rats; assay: Immune indicators of SD rats after one month of administration (Example 4); assay type: in vivo, rat; conditions: once a day for 4 weeks, end of administration
Protocol: SD rats were used to investigate the effects of the SE-DR affinity peptides on the immune indicators of the rats after continuous administration for one month. […] At the end of administration, analysis was conducted on the serum anti-FNS007 antibodies, different types of serum immunoglobulins, the serum complement, the peripheral blood T lymphocyte and the serum cytokines.

[8] = tested on: immune system of healthy monkeys; assay: Immune indicators of cynomolgus monkeys after one month of administration (Example 5); assay type: in vivo, cynomolgus monkey; conditions: once a day for 4 weeks, end of administration
Source text: Cynomolgus monkeys were used to investigate the effects of the SE-DR affinity peptide on the immune indicators of cynomolgus monkeys after continuous administration for one month. […] At the end of administration, the immune indicators, including the serum anti-FNS007 antibodies, the immunoglobulins of different serotypes, the serum complement, the peripheral blood T lymphocyte and the serum cytokines, were observed.

[9] = tested on: CIA rats with latent tuberculosis infection
[10] = tested on: CIA rats; assay: CIA rat model: inflammation score AUC and peripheral blood T-cell subtypes (Example 3); assay type: in vivo; conditions: 0.2 mmol
Protocol: Collagen-induced arthritis (CIA) model was established by intradermal injection of the emulsion formulated using type II bovine collagen (CII) together with incomplete Freund's adjuvant (IFA) into the tail head of a female Lewis rat. After the model establishment, the morphological changes of rats' four paws were examined every day. […] Except for the model group, the dosage of polypeptide was all set as 0.2 mmol. A control group was also set up, in which the drug was injected into the tail vein once every other day for […]. The area under the curve (AUC) of the inflammation score was used for the efficacy analysis from the day the rats were enrolled, once every other day, until the end of administration.

[11] = tested on: CIA mice infected with chronic hepatitis B; assay: CIA mice infected with chronic hepatitis B (Example 8); assay type: in vivo, mouse
Protocol: Establishment of chronic hepatitis B model in mice: DBA/1 mice were injected with Raav8-1. 3 HBV (1×10^12 vg/mL) via tail vein to establish HBV chronic hepatitis B model.
DBA/1 mice infected with chronic hepatitis B were used to establish CIA model with chronic hepatitis B infection. Methods: Two days after the mice were injected with Raav8-1.3 HBV (1×10^12 vg/mL) via tail vein, the emulsion of bovine C II and CFA (containing 100 μg collagen) was intradermally injected into the tail head of the mice for immunization. After 21 days, the mice were boosted once by intraperitoneal injection of the emulsion (containing 100 μg collagen) prepared by bovine C II and IFA. Thereafter, the morphological changes of the four paws of the mice were examined every day, and the mice were randomly assigned to the treatment group at inflammation score of 1. […] Another 10 mice with latent hepatitis B infection were not subjected to model establishment and set as the control group. PBS was administrated to both the model group and the control group. The mice in each group were given the corresponding drugs by tail intravenous injection at the volume of 10 ml/kg, once every other day, for 27 consecutive days. The mice were sacrificed on day 28 after administration. The inflammation scores of the four paws of the mice in each group were evaluated during the administration. The serological indicators for virus injection and liver function of the mice were detected on the day of booster immunization (22 days after tail vein injection) and at the time of sacrifice.

[12] = inflammation score AUC, APL20 0.2 mmol once every other day, methotrexate 0.5 mg/kg twice a week, i.v.
[13] = peripheral blood, […] after end of administration, flow cytometry

CN(Cc1cnc2nc(N)nc(N)c2n1)c1ccc(C(=O)N[C@@H](CCC(=O)O)C(=O)O)cc1 [Methotrexate, methotrexate]
Incidence of infection in mice [1]: 20% | half lethal dose [2]: 43 mg/kg | inflammation score during drug discontinuation compared with that at the time of drug discontinuation [3]: significantly increased | Pathological score during 21 days of drug discontinuation [3]: 2.87 ± 0.79 | AUC, during drug discontinuation (day 22-42) [3]: 100.13 ± 50.66 | AUC, during administration (day 1-21) [3, 12]: 67.69 ± 22.72 | AUC, the first week during administration [3, 12]: 16.58 ± 5.23 | AUC, during administration (day 1-21) ([3]; inflammation score AUC, APL20 0.2 mmol once every other day, methotrexate 0.5 mg/kg twice a week, i.v., listed as methotrexate): 67.69

AVKHNALKWA [APL52]
IC50 [4]: > 100 µM

PGYVKQGTLGLAT [APL3]
IC50 [5]: 3.35 µM

RSFTAASSETGVG [APL14]
IC50 [4]: 6.54 µM

SIDLKDKKYKNIGAKLVQLVANNTNEEA [APL20]
IL-6 levels in the supernatant [6]: 2.7 ng/mL | Incidence of infection in mice [1]: 0% | CD3% [7]: 36.96 ± 9.81% | CD4% [7]: 18.96 ± 5.98% | CD8% [7]: 17.99 ± 8.23% | IFN-γ [7]: 2.58 ± 0.29 pg/mL | IL-2 [7]: 3.55 ± 2.75 pg/mL | IL-4 [7]: 2.03 ± 1.01 pg/mL | TNF-α [7]: 5.09 ± 1.88 pg/mL | CD3% [8]: 62.96 ± 9.77% | CD4% [8]: 27.82 ± 8.05% | CD8% [8]: 22.97 ± 7.09% | IFN-γ [8]: 5.18 ± 0.33 pg/mL | IL-2 [8]: 4.55 ± 0.71 pg/mL | IL-4 [8]: 2.16 ± 0.36 pg/mL | TNF-α [8]: 2.45 ± 0.38 pg/mL | Observation on the daily condition of rats ([9]; during administration): No abnormality | Tuberculosis recurrence rate ([9]; peptides 0.2 mmol, adalimumab 1 mg/kg, 21 days): 0% | Inflammation score and area under the time curve (AUC) ([9]; peptides 0.2 mmol, adalimumab 1 mg/kg, tail i.v. once every other day for 21 days): 49.62 ± 35.87 | Culture of MTB from lungs and spleens of rats at sacrifice ([9]; sacrifice on day 22, peptides 0.2 mmol, adalimumab 1 mg/kg): Negative | Inflammation score and area under the time curve (AUC) ([10]; female Lewis CIA rats, tail vein once every other day for 15 days): 55.31 ± 40.23 | Th1 (%) [10, 13]: 0.18 ± 0.07 % | Th2 (%) [10, 13]: 4.35 ± 0.62 % | Th17 (%) [10, 13]: 0.88 ± 0.07 % | Treg (%) [10, 13]: 5.46 ± 0.81 % | inflammation score during drug discontinuation compared with that at the time of drug discontinuation [3]: could maintain the therapeutic effect | Pathological score during 21 days of drug discontinuation [3]: 2.05 ± 0.34 | AUC, during drug discontinuation (day 22-42) [3]: 50.11 ± 41.27 | ALT level ([11]; at sacrifice, day 28): 46.28 ± 17.99 U/L | Hepatitis B activation rate (Ratio of ALT > 100 U/L) ([11]; at sacrifice, day 28): 0% | Observation on the daily condition of mice ([11]; during administration): No abnormality | Inflammation score and area under the time curve (AUC) ([11]; peptides 50 μmol, Abatacept 100 μg, tail i.v. once every other day for 27 days): 92.34 ± 53.29
